From ChEMBL document CHEMBL6182948 (J Med Chem, 2025)

Columns and labels:
[1] = MRT (0 to infinity) in male Sprague-Dawley rat at 2 mg/kg, iv measured up to 24 hrs by LC-MS/MS analysis; type: ADME, organism-based; conditions: in vivo
[2] = Stability in human plasma assessed as compound remaining at 100 uM measured after 120 mins by LC-MS/MS analysis; type: ADME, cell-free; conditions: read-out: Stability
[3] = biological target: CYP2C9 (Homo sapiens, UniProt P11712); assay: Inhibition of CYP2C9 in human liver microsome at 10 uM pre-incubated with compound for 5 mins followed NADPH addition and measured after 10 mins by LC-MS/MS analysis relative to control; type: ADME; conditions: liver microsomes, time 15 min
Chain of CYP2C9 (P11712 whole entry): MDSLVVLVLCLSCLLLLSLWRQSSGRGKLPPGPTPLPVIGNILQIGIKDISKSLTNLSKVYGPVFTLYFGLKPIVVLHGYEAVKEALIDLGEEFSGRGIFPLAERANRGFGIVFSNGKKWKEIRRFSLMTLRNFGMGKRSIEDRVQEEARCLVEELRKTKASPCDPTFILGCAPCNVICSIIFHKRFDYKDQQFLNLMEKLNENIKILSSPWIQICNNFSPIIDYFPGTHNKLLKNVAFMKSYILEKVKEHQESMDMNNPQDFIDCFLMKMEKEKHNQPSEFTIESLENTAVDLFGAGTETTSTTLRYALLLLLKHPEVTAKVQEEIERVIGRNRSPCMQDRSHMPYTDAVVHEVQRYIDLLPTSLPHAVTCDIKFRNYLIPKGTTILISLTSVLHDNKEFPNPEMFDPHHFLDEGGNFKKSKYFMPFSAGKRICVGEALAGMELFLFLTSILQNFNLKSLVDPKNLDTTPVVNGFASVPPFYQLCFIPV

[4] = test system: A549/TR; assay: Inhibition of cell invasion in human A549/Taxol cells assessed as reduction in cell migration incubated for 24 hrs by transwell invasion assay relative to control; type: functional, cell-based; conditions: dose 2.5-10 µM
[5] = test system: A549/TR; assay: Synergistic antiproliferative activity against human A549/Taxol cells assessed as combination index at 10 uM in presence of 0.05 uM paclitaxel by Chou-Talalay method; type: functional
[6] = test system: A549/TR; assay: Synergistic antiproliferative activity against human A549/Taxol cells assessed as combination index at 2.5 uM in presence of 0.1 uM paclitaxel by Chou-Talalay method; type: functional
[7] = biological target: T1, Cytochrome P450 1B1 (Homo sapiens, UniProt Q16678); assay: Inhibition of human recombinant CYP1B1 using 7-ethoxyresorufin as substrate incubated under dark condition for 30 mins in presence of NADPH by EROD fluorescence assay; type: ADME
T1 sequence (Q16678 whole entry): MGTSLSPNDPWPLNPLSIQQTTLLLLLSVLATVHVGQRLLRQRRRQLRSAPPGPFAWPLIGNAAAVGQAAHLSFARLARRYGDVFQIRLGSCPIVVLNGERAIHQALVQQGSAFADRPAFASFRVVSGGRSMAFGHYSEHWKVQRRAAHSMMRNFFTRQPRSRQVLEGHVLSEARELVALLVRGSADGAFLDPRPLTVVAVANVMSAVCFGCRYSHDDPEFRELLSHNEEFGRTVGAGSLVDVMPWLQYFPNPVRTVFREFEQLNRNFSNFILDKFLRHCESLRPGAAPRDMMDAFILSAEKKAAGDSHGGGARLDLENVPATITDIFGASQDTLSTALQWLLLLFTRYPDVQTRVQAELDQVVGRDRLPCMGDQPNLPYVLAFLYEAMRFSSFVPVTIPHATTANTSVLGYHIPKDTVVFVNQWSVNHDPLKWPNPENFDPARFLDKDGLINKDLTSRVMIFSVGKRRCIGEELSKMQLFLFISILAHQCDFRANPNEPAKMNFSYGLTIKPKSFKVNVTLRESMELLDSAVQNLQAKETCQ

[8] = biological target: Cytochrome P450 2C9 (Homo sapiens, UniProt P11712); assay: Inhibition of CYP2C9 in human liver microsome pre-incubated with compound for 5 mins followed NADPH addition and measured after 10 mins by LC-MS/MS analysis; type: ADME, microsomes
Chain of Cytochrome P450 2C9 (P11712 whole entry): as the sequence (P11712 whole entry) above

[9] = Metabolic stability in liver microsomes (unknown origin) assessed as compound remaining at 0.5 mg/ml measured after 5 mins in presence of NADPH regenerating system by LC-MS/MS analysis relative to control; type: ADME, Microsome; conditions: read-out: Stability
[10] = Metabolic stability in liver microsomes (unknown origin) assessed as half life at 0.5 mg/ml measured up to 60 mins by LC-MS/MS analysis; type: ADME, Microsome
[11] = Oral bioavailability in male Sprague-Dawley rat at 10 mg/kg measured up to 24 hrs by LC-MS/MS analysis; type: ADME, organism-based; conditions: in vivo
[12] = test system: A549/TR; assay: Synergistic antiproliferative activity against human A549/Taxol cells assessed as combination index at 10 uM in presence of 0.5 uM paclitaxel by Chou-Talalay method; type: functional
[13] = test system: A549/TR; assay: Inhibition of cell migration in human A549/Taxol cells assessed as suppression of wound closure measured after 24 hrs by scratch-wound healing assay; type: functional, cell-based; conditions: dose 2.5-5 µM
[14] = biological target: Cytochrome P450 3A4 (Homo sapiens, UniProt P08684); assay: Inhibition of CYP3A4 in human liver microsome pre-incubated with compound for 5 mins followed NADPH addition and measured after 5 mins by LC-MS/MS analysis; type: ADME, microsomes
Chain of Cytochrome P450 3A4 (P08684 whole entry): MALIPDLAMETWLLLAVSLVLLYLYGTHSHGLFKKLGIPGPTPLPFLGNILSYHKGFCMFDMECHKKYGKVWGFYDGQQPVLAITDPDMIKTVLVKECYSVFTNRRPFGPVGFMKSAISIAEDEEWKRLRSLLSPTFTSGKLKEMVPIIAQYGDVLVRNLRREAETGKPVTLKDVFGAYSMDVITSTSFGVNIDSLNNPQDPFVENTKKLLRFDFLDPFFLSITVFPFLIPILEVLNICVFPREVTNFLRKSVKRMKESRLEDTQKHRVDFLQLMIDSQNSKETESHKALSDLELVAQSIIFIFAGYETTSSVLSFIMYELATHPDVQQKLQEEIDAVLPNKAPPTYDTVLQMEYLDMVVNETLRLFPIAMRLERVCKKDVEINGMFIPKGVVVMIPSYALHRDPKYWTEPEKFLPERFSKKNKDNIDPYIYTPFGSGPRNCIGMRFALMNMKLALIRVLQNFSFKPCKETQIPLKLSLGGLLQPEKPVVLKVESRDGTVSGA

[15] = biological target: T2, Cytochrome P450 2C8 (Homo sapiens, UniProt P10632); assay: Inhibition of CYP2C8 in human liver microsome pre-incubated with compound for 5 mins followed NADPH addition and measured after 5 mins by LC-MS/MS analysis; type: ADME, microsomes
T2 sequence (P10632 whole entry): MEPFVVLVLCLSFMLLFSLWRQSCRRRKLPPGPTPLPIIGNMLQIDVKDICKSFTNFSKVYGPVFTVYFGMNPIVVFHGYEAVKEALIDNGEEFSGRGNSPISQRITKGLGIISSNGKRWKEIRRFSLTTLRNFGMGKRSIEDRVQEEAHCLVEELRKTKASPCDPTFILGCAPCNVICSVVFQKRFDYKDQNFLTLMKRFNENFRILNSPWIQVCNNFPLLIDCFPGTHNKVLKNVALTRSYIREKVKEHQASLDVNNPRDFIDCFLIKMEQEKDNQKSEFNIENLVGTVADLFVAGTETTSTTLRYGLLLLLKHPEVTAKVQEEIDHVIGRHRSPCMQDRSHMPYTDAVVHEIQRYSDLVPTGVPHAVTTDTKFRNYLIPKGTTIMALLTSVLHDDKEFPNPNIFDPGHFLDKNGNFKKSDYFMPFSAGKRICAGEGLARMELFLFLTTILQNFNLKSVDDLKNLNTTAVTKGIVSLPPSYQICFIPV

[16] = AUC (0 to infinity) in male Sprague-Dawley rat at 10 mg/kg, po measured up to 24 hrs by LC-MS/MS analysis; type: ADME, organism-based; conditions: in vivo
[17] = Metabolic stability in liver microsome (unknown origin) assessed as intrinsic clearance at 0.5 mg/mL measured up to 60 mins by LC-MS/MS analysis; type: ADME; conditions: liver microsomes, read-out: CLH
[18] = AUC (0 to t) in male Sprague-Dawley rat at 2 mg/kg, iv measured up to 24 hrs by LC-MS/MS analysis; type: ADME, organism-based; conditions: in vivo
[19] = Stability in human plasma assessed as compound remaining at 100 uM measured immediately by LC-MS/MS analysis; type: ADME, cell-free; conditions: read-out: Stability
[20] = test system: A549/TR; assay: Synergistic antiproliferative activity against human A549/Taxol cells assessed as combination index at 20 uM in presence of 0.05 uM paclitaxel by Chou-Talalay method; type: functional
[21] = biological target: T3, CYP2C8 (Homo sapiens, UniProt P10632); assay: Inhibition of CYP2C8 in human liver microsome at 10 uM pre-incubated with compound for 5 mins followed NADPH addition and measured after 5 mins by LC-MS/MS analysis relative to control; type: ADME; conditions: liver microsomes, time 10 min
T3 sequence (P10632 whole entry): T2 sequence (P10632 whole entry)

[22] = biological target: Cytochrome P450 2C19 (Homo sapiens, UniProt P33261); assay: Inhibition of CYP2C19 in human liver microsome pre-incubated with compound for 5 mins followed NADPH addition and measured after 30 mins by LC-MS/MS analysis; type: ADME, microsomes
Chain of Cytochrome P450 2C19 (P33261 whole entry): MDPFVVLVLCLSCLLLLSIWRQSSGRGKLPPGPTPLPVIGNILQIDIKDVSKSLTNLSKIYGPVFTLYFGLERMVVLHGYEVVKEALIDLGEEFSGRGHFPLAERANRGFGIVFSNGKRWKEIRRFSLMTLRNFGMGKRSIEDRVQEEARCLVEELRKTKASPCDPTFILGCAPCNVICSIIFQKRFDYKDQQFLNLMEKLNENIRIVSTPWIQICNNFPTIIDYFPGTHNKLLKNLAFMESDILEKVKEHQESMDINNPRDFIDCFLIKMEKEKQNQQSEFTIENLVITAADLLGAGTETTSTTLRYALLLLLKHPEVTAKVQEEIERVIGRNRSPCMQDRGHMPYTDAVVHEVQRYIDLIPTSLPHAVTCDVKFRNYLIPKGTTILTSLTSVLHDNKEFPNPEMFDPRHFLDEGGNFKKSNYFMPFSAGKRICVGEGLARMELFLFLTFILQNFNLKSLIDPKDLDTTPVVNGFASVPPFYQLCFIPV

[23] = test system: A549/TR; assay: Inhibition of cell invasion in human A549/Taxol cells assessed as invasive cells at 2.5 uM incubated for 24 hrs by transwell invasion assay relative to control; type: functional; set-up: scale not given: the % may be the effect or the level left
[24] = biological target: Cytochrome P450 2D6 (Homo sapiens, UniProt P10635); assay: Inhibition of CYP2D6 in human liver microsome pre-incubated with compound for 5 mins followed NADPH addition and measured after 10 mins by LC-MS/MS analysis; type: ADME, microsomes
Chain of Cytochrome P450 2D6 (P10635 whole entry): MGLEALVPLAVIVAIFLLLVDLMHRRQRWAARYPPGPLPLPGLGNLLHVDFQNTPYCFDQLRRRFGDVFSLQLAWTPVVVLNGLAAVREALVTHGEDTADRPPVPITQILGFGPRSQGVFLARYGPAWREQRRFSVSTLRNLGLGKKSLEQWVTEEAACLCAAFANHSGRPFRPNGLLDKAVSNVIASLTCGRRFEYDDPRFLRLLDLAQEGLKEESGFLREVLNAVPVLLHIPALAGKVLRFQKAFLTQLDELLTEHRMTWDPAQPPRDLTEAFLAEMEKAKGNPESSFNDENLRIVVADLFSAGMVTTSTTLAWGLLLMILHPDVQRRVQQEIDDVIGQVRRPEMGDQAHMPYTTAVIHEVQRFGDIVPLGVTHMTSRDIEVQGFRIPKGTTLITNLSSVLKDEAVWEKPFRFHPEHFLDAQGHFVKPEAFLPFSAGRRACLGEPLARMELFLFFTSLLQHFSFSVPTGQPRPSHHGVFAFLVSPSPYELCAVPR

Structure (SMILES)	remaining at 2 h, 100 µM [2] [%]	inhibition at 10 min, 10 µM [3] [%]	IC50 [7] [nM]	IC50 [8] [µM]	remaining at 5 min [9] [%]	half-life [10] [h]	IC50 [14] [µM]	IC50 [15] [µM]	CLint scaled [17] [mL/min/kg]	remaining at 0 min, 100 µM [19] [%]	inhibition at 5 min, 10 µM [21] [%]	IC50 [22] [µM]	IC50 [24] [µM]	also measured
O=C(Nc1cc(Cl)cc(Cl)c1)c1nc(-c2cccc(Cl)c2)cs1	93.9	2.21	1.48	> 10	99.5	> 1	> 10	> 10	1.1	100	15.7	> 10	> 10	MRT inf [1]: 0.73 h; inhibition [4]: Dose-dependent-effect; CI [5]: 0.2; CI [6]: 0.09; bioavailability [11]: 2.08%; CI [12]: 1.14; inhibition [13]: Dose-dependent-effect; AUC(0-inf) [16]: 239 ng·h/mL; AUC(0-t) at 24 h [18]: 2290 ng·h/mL; CI [20]: 0.38; Activity [23]: 35.7%
N#Cc1ccc(-c2csc(C(=O)Nc3ccc(C(F)(F)F)cc3)n2)cc1	93.4	17.4	0.05	> 10	93.1	1.17	2.97	> 10	17.8	100	33.6	6.45	> 10	–
N#Cc1ccc(-c2csc(C(=O)Nc3cc(Cl)cc(Cl)c3)n2)cc1	103	2.21	1.77	–	93.8	> 1	1.55	–	–	100	0	–	–	–
